Data reported in ChEMBL document CHEMBL3045675, “Synthesis and structure-activity relationships of some pesticides with an alpha-amino acid function” (Biochim Biophys Acta, 1997).
The source made the active and inactive calls. The calls are words filed in the database; no cut-off is given here.

What was measured:
Vicia faba [1] = experiment: Herbicidal activity against Vicia faba assessed as 1 mM of L-[3H]theronine uptake in leaf at 1 mM after 1 hr by liquid scintillation counting analysis relative to untreated control; format: functional
Vicia faba [2] = experiment: Herbicidal activity against Vicia faba assessed as 1 mM of L-[3H]theronine uptake in leaf at 5 mM after 1 hr by liquid scintillation counting analysis relative to untreated control; format: functional
Vicia faba [3] = experiment: Herbicidal activity against Vicia faba assessed as 1 mM of L-[3H]theronine uptake in leaf at 10 mM after 1 hr by liquid scintillation counting analysis relative to untreated control; format: functional
Vicia faba [4] = experiment: Herbicidal activity against Vicia faba assessed as inhibition of 1 mM of [U-14C]theronine loading in phloem after 1 hr by autoradiographic analysis relative to untreated control; format: functional, organism-based
Vicia faba [5] = experiment: Herbicidal activity against Vicia faba assessed as change in transmembrane potential difference in mesophyll cells at 1 mM after 1 hr by electrophysiological assay (reference value: - 154 +/- 13.2 mV); format: functional
[6] = Solubility in water; format: physicochemical; conditions: buffer
Vicia faba [7] = experiment: Herbicidal activity against Vicia faba assessed as 1 mM of L-[3H]glutamate uptake in leaf at 1 mM after 1 hr by liquid scintillation counting analysis relative to untreated control; format: functional
Vicia faba [8] = experiment: Herbicidal activity against Vicia faba assessed as reduction in 10 mM threonine-induced depolarization of transmembrane potential difference in mesophyll cells at 1 mM after 1 hr by electrophysiological assay (reference value: 27.9 +/- 12.7 mV); format: functional
Vicia faba [9] = experiment: Herbicidal activity against Vicia faba assessed as change in 12 mM KCl-induced depolarization of transmembrane potential difference in mesophyll cells at 1 mM after 1 hr by electrophysiological assay; format: functional, organism-based
[10] = Solubility in hydrochloric acid; format: physicochemical
[11] = Solubility in organic solvents; format: physicochemical
Vicia faba [12] = experiment: Herbicidal activity against Vicia faba assessed as change in 10 mM sucrose-induced depolarization of transmembrane potential difference in mesophyll cells at 1 mM after 1 hr by electrophysiological assay (reference value: 9.2 +/- 7.1 mV); format: functional
Vicia faba [13] = experiment: Herbicidal activity against Vicia faba assessed as 1 mM of L-[3H]lysine uptake in leaf at 1 mM after 1 hr by liquid scintillation counting analysis relative to untreated control; format: functional, organism-based
Vicia faba [14] = experiment: Herbicidal activity against Vicia faba assessed as inhibition of 1 mM of [3H]sucrose uptake in leaf at 1 mM after 1 hr by liquid scintillation counting analysis relative to untreated control; format: functional, organism-based
Vicia faba [15] = experiment: Herbicidal activity against Vicia faba assessed as inhibition of 1 mM of L-[3H]theronine uptake in leaf at 1 mM after 1 hr by liquid scintillation counting analysis relative to untreated control; format: functional
[16] = Octanol-water partition coefficient, log KOW of the compound; format: physicochemical; conditions: read-out: log KOW
Vicia faba [17] = experiment: Herbicidal activity against Vicia faba assessed as inhibition of 1 mM of [U-14C]theronine uptake in mesophyll after 1 hr by autoradiographic analysis relative to untreated control; format: functional, organism-based
Vicia faba [18] = experiment: Herbicidal activity against Vicia faba assessed as inhibition of 1 mM of [U-14C]theronine uptake in veins after 1 hr by autoradiographic analysis relative to untreated control; format: functional, organism-based
Vicia faba [19] = experiment: Herbicidal activity against Vicia faba assessed as 1 mM of L-[3H]theronine uptake in leaf at 5 uM after 1 hr by liquid scintillation counting analysis relative to untreated control; format: functional
Vicia faba [20] = experiment: Herbicidal activity against Vicia faba assessed as decrease in 1 mM of L-[3H]lysine uptake in leaf at pH 3.5 at 2.5 mM after 1 hr by liquid scintillation counting analysis; format: functional, organism-based
Vicia faba [21] = experiment: Herbicidal activity against Vicia faba assessed as 1 mM of L-[3H]theronine uptake in leaf at 20 uM after 1 hr by liquid scintillation counting analysis relative to untreated control; format: functional
Vicia faba [22] = experiment: Herbicidal activity against Vicia faba assessed as decrease in 1 mM of L-[3H]lysine uptake in leaf at pH 8 at 2.5 mM after 1 hr by liquid scintillation counting analysis; format: functional, organism-based
Vicia faba [23] = experiment: Herbicidal activity against Vicia faba assessed as inhibition of 1 mM of L-[3H]threonine uptake in leaf at pH 4 at 2.5 mM after 1 hr by liquid scintillation counting analysis; format: functional
Vicia faba [24] = experiment: Herbicidal activity against Vicia faba assessed as change in 10 mM sucrose-induced depolarization of transmembrane potential difference in mesophyll cells at 2.5 mM after 1 hr by electrophysiological assay relative to control; format: functional, organism-based
Vicia faba [25] = experiment: Herbicidal activity against Vicia faba assessed as change in 12 mM KCl-induced depolarization of transmembrane potential difference in mesophyll cells at 2.5 mM after 1 hr by electrophysiological assay; format: functional, organism-based
Vicia faba [26] = experiment: Herbicidal activity against Vicia faba assessed as inhibition of threonine uptake; format: functional, organism-based; conditions: read-out: Ki(app)
Vicia faba [27] = experiment: Herbicidal activity against Vicia faba assessed as inhibition of 1 mM of L-[3H]glutamate uptake in leaf at pH 4 at 2.5 mM after 1 hr by liquid scintillation counting analysis; format: functional
Vicia faba [28] = experiment: Herbicidal activity against Vicia faba assessed as reduction in 10 mM threonine-induced depolarization of transmembrane potential difference in mesophyll cells at 2.5 mM after 1 hr by electrophysiological assay relative to control; format: functional, organism-based
Vicia faba [29] = experiment: Herbicidal activity against Vicia faba assessed as inhibition of 1 mM of L-[3H]lysine uptake in leaf at pH 4 at 2.5 mM after 1 hr by liquid scintillation counting analysis; format: functional
Vicia faba [30] = experiment: Herbicidal activity against Vicia faba assessed as 1 mM of L-[3H]theronine uptake in leaf at 10 uM after 1 hr by liquid scintillation counting analysis relative to untreated control; format: functional
Vicia faba [31] = experiment: Herbicidal activity against Vicia faba assessed as decrease in 1 mM of L-[3H]glutamate uptake in leaf at pH 8 at 2.5 mM after 1 hr by liquid scintillation counting analysis; format: functional, organism-based

With `N[C@@H](CCC(=O)O)C(=O)O` [GLUTAMIC ACID] as the compound, how does the Activity (Vicia faba [1]) read?
The Activity was 96.7%.

And the Activity (Vicia faba [2])?
Its Activity is 76.2%.

What about the Activity (Vicia faba [3]) of the same compound?
Its Activity is 67.2%.

For `N[C@@H](CCCCNC(=O)CCCOc1ccc(Cl)cc1Cl)C(=O)O`, which inhibition (Vicia faba [4]) is on record?
Its inhibition is “Active”.

What about the Activity (Vicia faba [5]) of the same compound?
Its Activity is -161.9 mV.

What about the solubility [6] of the same compound?
Its solubility is “soluble”.

And the inhibition (Vicia faba [7])?
Its inhibition is “Active”.

And the Activity (Vicia faba [8])?
Its Activity is 10.2 mV.

What about the Activity (Vicia faba [9]) of the same compound?
Its Activity is “inactive”.

And the solubility [10]?
The solubility was “soluble”.

And the solubility [11]?
Its solubility is “Insoluble”.

And the Activity (Vicia faba [12])?
The Activity was 10.1 mV.

And the inhibition (Vicia faba [13])?
Its inhibition is “Active”.

And the inhibition (Vicia faba [14])?
The inhibition was “inactive”.

And the inhibition (Vicia faba [15])?
Its inhibition is “Active”.

What about the logP [16] of the same compound?
The logP was -0.49.

Which results are given for `N[C@@H](CCCCNC(=O)COc1ccccc1)C(=O)O` [L-LYSINE-PHENOXYACETIC ACID]?
inhibition (Vicia faba [17]): Active; inhibition (Vicia faba [13]): Active; inhibition (Vicia faba [14]): inactive; inhibition (Vicia faba [18]): Active

With `Nc1ccc(OCC(=O)NCCCC[C@H](N)C(=O)O)cc1` as the compound, how does the inhibition (Vicia faba [17]) read?
Its inhibition is “Active”.

What about the solubility [6] of the same compound?
The solubility was “soluble”.

What about the solubility [10] of the same compound?
The solubility was “soluble”.

What about the solubility [11] of the same compound?
The solubility was “Insoluble”.

What about the inhibition (Vicia faba [14]) of the same compound?
Its inhibition is “inactive”.

And the inhibition (Vicia faba [15])?
Its inhibition is “inactive”.

What about the inhibition (Vicia faba [18]) of the same compound?
Its inhibition is “Active”.

And the logP [16]?
Its logP is -3.

With `N[C@@H](CCCCNC(=O)COc1ccc(Cl)cc1)C(=O)O` [L-LYSINE-4-CHLOROPHENOXYACETIC ACID] as the compound, how does the inhibition (Vicia faba [14]) read?
Its inhibition is “inactive”.

Which Activity (Vicia faba [1]) does the source give for `CC(C)[C@H](N)C(=O)O` [VALINE] here?
The Activity was 99.2%.

What about the Activity (Vicia faba [2]) of the same compound?
Its Activity is 77.4%.

And the Activity (Vicia faba [3])?
Its Activity is 63.7%.

With `N[C@H](CCCCNC(=O)COc1ccc(Cl)cc1Cl)C(=O)O` [D-LYSINE-2,4-DICHLOROPHENO-XYACETIC ACID] as the compound, how does the Activity (Vicia faba [1]) read?
Its Activity is 74.2%.

What about the inhibition (Vicia faba [17]) of the same compound?
Its inhibition is “inactive”.

What about the inhibition (Vicia faba [18]) of the same compound?
The inhibition was “inactive”.

With `N[C@@H](CCCCNC(=O)COc1ccc([N+](=O)[O-])cc1)C(=O)O` [L-LYSINE-4-NITROPHENOXYACETICACID] as the compound, how does the inhibition (Vicia faba [14]) read?
The inhibition was “inactive”.

For `Cc1cc(Cl)ccc1OCC(=O)NCCCC[C@H](N)C(=O)O` [L-LYSINE-2-METHYL-4-CHLOROROPHENOXYACETIC ACID], which solubility [6] is on record?
Its solubility is “soluble”.

What about the solubility [10] of the same compound?
Its solubility is “soluble”.

What about the solubility [11] of the same compound?
The solubility was “Insoluble”.

And the inhibition (Vicia faba [14])?
Its inhibition is “inactive”.

And the inhibition (Vicia faba [15])?
The inhibition was “Active”.

And the logP [16]?
Its logP is -0.59.

For `N[C@@H](CCCCNC(=O)COc1ccc(Cl)cc1Cl)C(=O)O`, which Activity (Vicia faba [19]) is on record?
The Activity was 91.8%.

What about the Activity (Vicia faba [20]) of the same compound?
Its Activity is “inactive”.

And the Activity (Vicia faba [21])?
The Activity was 80.7%.

What about the Activity (Vicia faba [22]) of the same compound?
The Activity was “Active”.

And the “inhibition (INH)” value (Vicia faba [23])?
The value was 79%.

And the Activity (Vicia faba [24])?
Its Activity is “inactive”.

And the solubility [6]?
The solubility was “soluble”.

And the Activity (Vicia faba [25])?
The Activity was “inactive”.

And the inhibition (Vicia faba [7])?
Its inhibition is “Active”.

What about the Ki (Vicia faba [26]) of the same compound?
Its Ki is 500 µM.

What about the solubility [10] of the same compound?
Its solubility is “soluble”.

What about the “inhibition (INH)” value (Vicia faba [27]) of the same compound?
Its value is 51%.

What about the solubility [11] of the same compound?
The solubility was “Insoluble”.

And the Activity (Vicia faba [28])?
The Activity was “inactive”.

What about the “inhibition (INH)” value (Vicia faba [29]) of the same compound?
The value was 81%.

What about the inhibition (Vicia faba [13]) of the same compound?
The inhibition was “Active”.

What about the inhibition (Vicia faba [14]) of the same compound?
The inhibition was “inactive”.

And the Activity (Vicia faba [30])?
The Activity was 91%.

And the inhibition (Vicia faba [15])?
The inhibition was “Active”.

What about the Activity (Vicia faba [31]) of the same compound?
Its Activity is “Active”.

And the logP [16]?
The logP was -0.49.

With `NCCCC[C@H](N)C(=O)O` [LYSINE] as the compound, how does the Activity (Vicia faba [1]) read?
Its Activity is 97%.

And the Activity (Vicia faba [2])?
The Activity was 99.6%.

What about the Activity (Vicia faba [3]) of the same compound?
The Activity was 104%.
